According to PMC7562955 (Nature Communications, 2020):

Biological target: T1, TLR7 (Homo sapiens, UniProt Q9NYK1)
T1 sequence (Q9NYK1 27-1049): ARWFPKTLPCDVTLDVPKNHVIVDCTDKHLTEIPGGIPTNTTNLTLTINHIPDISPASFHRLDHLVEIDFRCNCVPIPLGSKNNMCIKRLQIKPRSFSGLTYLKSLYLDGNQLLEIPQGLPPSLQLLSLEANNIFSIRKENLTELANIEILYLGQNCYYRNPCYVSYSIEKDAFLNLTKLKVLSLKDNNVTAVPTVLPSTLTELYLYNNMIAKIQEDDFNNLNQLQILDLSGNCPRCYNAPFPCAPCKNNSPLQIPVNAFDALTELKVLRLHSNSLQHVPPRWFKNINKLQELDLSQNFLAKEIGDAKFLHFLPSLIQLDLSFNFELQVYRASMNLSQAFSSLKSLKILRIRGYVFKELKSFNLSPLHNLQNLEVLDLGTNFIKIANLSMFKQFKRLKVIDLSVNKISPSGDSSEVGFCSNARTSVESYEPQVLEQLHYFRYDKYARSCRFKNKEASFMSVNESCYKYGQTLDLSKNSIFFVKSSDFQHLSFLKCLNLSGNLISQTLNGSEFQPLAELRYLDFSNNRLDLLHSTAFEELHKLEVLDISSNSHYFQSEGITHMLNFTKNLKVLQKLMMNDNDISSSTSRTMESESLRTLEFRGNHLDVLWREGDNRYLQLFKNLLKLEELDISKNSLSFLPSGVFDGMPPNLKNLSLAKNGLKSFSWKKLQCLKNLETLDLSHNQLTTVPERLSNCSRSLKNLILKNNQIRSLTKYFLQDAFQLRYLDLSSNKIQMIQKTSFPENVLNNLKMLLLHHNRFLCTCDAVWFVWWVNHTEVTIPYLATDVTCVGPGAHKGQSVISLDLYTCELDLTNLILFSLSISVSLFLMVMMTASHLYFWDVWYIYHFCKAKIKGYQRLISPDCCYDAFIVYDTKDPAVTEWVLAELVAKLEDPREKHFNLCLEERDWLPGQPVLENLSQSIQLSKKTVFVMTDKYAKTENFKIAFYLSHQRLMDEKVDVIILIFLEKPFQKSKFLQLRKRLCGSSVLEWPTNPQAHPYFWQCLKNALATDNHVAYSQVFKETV
Assay: Dose-response relationship between antagonist and R848, human TLR7 reporter gene assay
Format: cell-based
Design: host or cells: HEK293 (TLR7/NF-κB/SEAPorter)
Description: Compounds were dissolved in dimethyl sulfoxide. Human TLR7 reporter cell line (Novus Biological) were seeded in 96-well microtiter plate (AGC techno glass) at 5 × 10^4 cells/well in DMEM (GIBCO) with 10% fetal bovine serum (GIBCO), and 10 μg ml^−1 Blastcidin S HCl (GIBCO) and incubated at 37 °C in 5% CO2. The plates were incubated over-night and then addition with various concentrations of compound. After 30 min, R848 (human TLR7/8 ligand) that was diluted with the medium was added, wherein final concentration was adjusted to 0.01, 0.03, 0.1, 0.3, 1, 3, 10, 30, 100, 300 and 1000 μM. The plates were then incubated an additional 20 ± 1 h at 37 °C in 5% CO2, and then the SEAP activity was measured as activation of human TLR7. The SEAP activity was evaluated as follows: pNPP (Invitrogen) was added to the incubated sample (50 μl/well); after 15 min, 4 mol l^−1 sodium hydroxide solution (nacalai tesque) was added thereto (50 μl/well) to quench the reaction; and the absorbance of each sample was measured at 405 nm with microplate reader SpectraMax M4 (Molecular Devices).

## CCOc1nc(N)c2nc(-c3cncc(F)c3)n(Cc3ccc(CN4C[C@@H]5C[C@H]4CN5C)cc3)c2n1 [Cpd-6]
  mode of action against R848: acted as antagonists
Cpd-6 0.001 µM, log10[R848 (µM)] 0
  TLR7 reporter signal: 12.4492
Cpd-6 0.001 µM, log10[R848 (µM)] 0.477121
  TLR7 reporter signal: 42.5203
Cpd-6 0.001 µM, log10[R848 (µM)] 1
  TLR7 reporter signal: 87.7267
Cpd-6 0.001 µM, log10[R848 (µM)] 1.47712
  TLR7 reporter signal: 99.7073
Cpd-6 0.001 µM, log10[R848 (µM)] 2
  TLR7 reporter signal: 100.849
Cpd-6 0.001 µM, log10[R848 (µM)] 2.47712
  TLR7 reporter signal: 102.716
Cpd-6 0.001 µM, log10[R848 (µM)] 3
  TLR7 reporter signal: 99.4752
Cpd-6 0.001 µM, log10[R848 (µM)] -0.522879
  TLR7 reporter signal: 1.192
Cpd-6 0.001 µM, log10[R848 (µM)] -1
  TLR7 reporter signal: 0.7791
Cpd-6 0.001 µM, log10[R848 (µM)] -1.52288
  TLR7 reporter signal: 0.2957
Cpd-6 0.001 µM, log10[R848 (µM)] -2
  TLR7 reporter signal: -0.1404
Cpd-6 0.003 µM, log10[R848 (µM)] 0
  TLR7 reporter signal: 9.923
Cpd-6 0.003 µM, log10[R848 (µM)] 0.477121
  TLR7 reporter signal: 37.8265
Cpd-6 0.003 µM, log10[R848 (µM)] 1
  TLR7 reporter signal: 84.946
Cpd-6 0.003 µM, log10[R848 (µM)] 1.47712
  TLR7 reporter signal: 98.5645
Cpd-6 0.003 µM, log10[R848 (µM)] 2
  TLR7 reporter signal: 102.64
Cpd-6 0.003 µM, log10[R848 (µM)] 2.47712
  TLR7 reporter signal: 101.614
Cpd-6 0.003 µM, log10[R848 (µM)] 3
  TLR7 reporter signal: 100.614
Cpd-6 0.003 µM, log10[R848 (µM)] -0.522879
  TLR7 reporter signal: 0.6697
Cpd-6 0.003 µM, log10[R848 (µM)] -1
  TLR7 reporter signal: 0.7155
Cpd-6 0.003 µM, log10[R848 (µM)] -1.52288
  TLR7 reporter signal: 0.0547
Cpd-6 0.003 µM, log10[R848 (µM)] -2
  TLR7 reporter signal: -0.2513
Cpd-6 0.01 µM, log10[R848 (µM)] -2
  TLR7 reporter signal: -0.4139
Cpd-6 0.1 μM, log10[R848 (µM)] 0
  TLR7 reporter signal: 1.818
Cpd-6 0.1 μM, log10[R848 (µM)] 0.477121
  TLR7 reporter signal: 11.9813
Cpd-6 0.1 μM, log10[R848 (µM)] 1
  TLR7 reporter signal: 58.4894
Cpd-6 0.1 μM, log10[R848 (µM)] 1.47712
  TLR7 reporter signal: 91.4766
Cpd-6 0.1 μM, log10[R848 (µM)] 2
  TLR7 reporter signal: 100.668
Cpd-6 0.1 μM, log10[R848 (µM)] 2.47712
  TLR7 reporter signal: 102.716
Cpd-6 0.1 μM, log10[R848 (µM)] 3
  TLR7 reporter signal: 98.9371
Cpd-6 0.1 μM, log10[R848 (µM)] -0.522879
  TLR7 reporter signal: 0.03031
Cpd-6 0.1 μM, log10[R848 (µM)] -1
  TLR7 reporter signal: 0.4916
Cpd-6 0.1 μM, log10[R848 (µM)] -1.52288
  TLR7 reporter signal: 0.6438
Cpd-6 0.1 μM, log10[R848 (µM)] -2
  TLR7 reporter signal: -0.1471
Cpd-6 0.3 μM, log10[R848 (µM)] 0
  TLR7 reporter signal: 0.5455
Cpd-6 0.3 μM, log10[R848 (µM)] 0.477121
  TLR7 reporter signal: 4.006
Cpd-6 0.3 μM, log10[R848 (µM)] 1
  TLR7 reporter signal: 31.2508
Cpd-6 0.3 μM, log10[R848 (µM)] 1.47712
  TLR7 reporter signal: 73.4318
Cpd-6 0.3 μM, log10[R848 (µM)] 2
  TLR7 reporter signal: 95.1399
Cpd-6 0.3 μM, log10[R848 (µM)] 2.47712
  TLR7 reporter signal: 101.486
Cpd-6 0.3 μM, log10[R848 (µM)] 3
  TLR7 reporter signal: 99.1034
Cpd-6 0.3 μM, log10[R848 (µM)] -0.522879
  TLR7 reporter signal: -0.01626
Cpd-6 0.3 μM, log10[R848 (µM)] -1
  TLR7 reporter signal: 0.3371
Cpd-6 0.3 μM, log10[R848 (µM)] -1.52288
  TLR7 reporter signal: 0.2617
Cpd-6 0.3 μM, log10[R848 (µM)] -2
  TLR7 reporter signal: -0.3984
Cpd-6 1 μM, log10[R848 (µM)] 0
  TLR7 reporter signal: 0.1648
Cpd-6 1 μM, log10[R848 (µM)] 0.477121
  TLR7 reporter signal: 0.6756
Cpd-6 1 μM, log10[R848 (µM)] 1
  TLR7 reporter signal: 11.4786
Cpd-6 1 μM, log10[R848 (µM)] 1.47712
  TLR7 reporter signal: 45.6507
Cpd-6 1 μM, log10[R848 (µM)] 2
  TLR7 reporter signal: 84.5912
Cpd-6 1 μM, log10[R848 (µM)] 2.47712
  TLR7 reporter signal: 96.6131
Cpd-6 1 μM, log10[R848 (µM)] 3
  TLR7 reporter signal: 99.4242
Cpd-6 1 μM, log10[R848 (µM)] -0.522879
  TLR7 reporter signal: -0.03548
Cpd-6 1 μM, log10[R848 (µM)] -1
  TLR7 reporter signal: 0.7835
Cpd-6 1 μM, log10[R848 (µM)] -1.52288
  TLR7 reporter signal: 0.4073
Cpd-6 1 μM, log10[R848 (µM)] -2
  TLR7 reporter signal: -0.4287
Cpd-6 3 μM, log10[R848 (µM)] 0
  TLR7 reporter signal: -0.1671
Cpd-6 3 μM, log10[R848 (µM)] 0.477121
  TLR7 reporter signal: -0.3319
Cpd-6 3 μM, log10[R848 (µM)] 1
  TLR7 reporter signal: 1.145
Cpd-6 3 μM, log10[R848 (µM)] 1.47712
  TLR7 reporter signal: 10.9886
Cpd-6 3 μM, log10[R848 (µM)] 2
  TLR7 reporter signal: 45.7638
Cpd-6 3 μM, log10[R848 (µM)] 2.47712
  TLR7 reporter signal: 76.6561
Cpd-6 3 μM, log10[R848 (µM)] 3
  TLR7 reporter signal: 93.6623
Cpd-6 3 μM, log10[R848 (µM)] -0.522879
  TLR7 reporter signal: -0.0924
Cpd-6 3 μM, log10[R848 (µM)] -1
  TLR7 reporter signal: 0.3881
Cpd-6 3 μM, log10[R848 (µM)] -1.52288
  TLR7 reporter signal: 0.1811
Cpd-6 3 μM, log10[R848 (µM)] -2
  TLR7 reporter signal: -0.3984
Cpd-6 10 μM, log10[R848 (µM)] 0
  TLR7 reporter signal: -0.3585
Cpd-6 10 μM, log10[R848 (µM)] 0.477121
  TLR7 reporter signal: 0.00887
Cpd-6 10 μM, log10[R848 (µM)] 1
  TLR7 reporter signal: -0.3311
Cpd-6 10 μM, log10[R848 (µM)] 1.47712
  TLR7 reporter signal: 1.483
Cpd-6 10 μM, log10[R848 (µM)] 2
  TLR7 reporter signal: 7.633
Cpd-6 10 μM, log10[R848 (µM)] 2.47712
  TLR7 reporter signal: 30.5109
Cpd-6 10 μM, log10[R848 (µM)] 3
  TLR7 reporter signal: 70.7738
Cpd-6 10 μM, log10[R848 (µM)] -0.522879
  TLR7 reporter signal: 0.08501
Cpd-6 10 μM, log10[R848 (µM)] -1
  TLR7 reporter signal: 0.6054
Cpd-6 10 μM, log10[R848 (µM)] -1.52288
  TLR7 reporter signal: 0.5159
Cpd-6 10 μM, log10[R848 (µM)] -2
  TLR7 reporter signal: -0.6941
Cpd-6 30 μM, log10[R848 (µM)] 0
  TLR7 reporter signal: -0.8205
Cpd-6 30 μM, log10[R848 (µM)] 0.477121
  TLR7 reporter signal: -0.1671
Cpd-6 30 μM, log10[R848 (µM)] 1
  TLR7 reporter signal: -0.3932
Cpd-6 30 μM, log10[R848 (µM)] 1.47712
  TLR7 reporter signal: 0.7037
Cpd-6 30 μM, log10[R848 (µM)] 2
  TLR7 reporter signal: 0.5559
Cpd-6 30 μM, log10[R848 (µM)] 2.47712
  TLR7 reporter signal: 4.178
Cpd-6 30 μM, log10[R848 (µM)] 3
  TLR7 reporter signal: 28.3207
Cpd-6 30 μM, log10[R848 (µM)] -0.522879
  TLR7 reporter signal: -0.2084
Cpd-6 30 μM, log10[R848 (µM)] -1
  TLR7 reporter signal: 0.05618
Cpd-6 30 μM, log10[R848 (µM)] -1.52288
  TLR7 reporter signal: 0.1597
Cpd-6 30 μM, log10[R848 (µM)] -2
  TLR7 reporter signal: -0.9107
Cpd-6 100 μM, log10[R848 (µM)] 0
  TLR7 reporter signal: -0.4154
Cpd-6 100 μM, log10[R848 (µM)] 0.477121
  TLR7 reporter signal: -0.3459
Cpd-6 100 μM, log10[R848 (µM)] 1
  TLR7 reporter signal: -0.6712
Cpd-6 100 μM, log10[R848 (µM)] 1.47712
  TLR7 reporter signal: 0.8663
Cpd-6 100 μM, log10[R848 (µM)] 2
  TLR7 reporter signal: 0.5381
Cpd-6 100 μM, log10[R848 (µM)] 2.47712
  TLR7 reporter signal: 4.485
Cpd-6 100 μM, log10[R848 (µM)] 3
  TLR7 reporter signal: 25.5163
Cpd-6 100 μM, log10[R848 (µM)] -0.522879
  TLR7 reporter signal: -0.01478
Cpd-6 100 μM, log10[R848 (µM)] -1
  TLR7 reporter signal: 0.612
Cpd-6 100 μM, log10[R848 (µM)] -1.52288
  TLR7 reporter signal: 1.063
Cpd-6 100 μM, log10[R848 (µM)] -2
  TLR7 reporter signal: -0.5529
